Measurements: US10967078B2, “Radiolabelled mGluR2 PET ligands” (Janssen Pharmaceutica NV, priority 2014, dated 2021)

Tests used:
mGlu3 = mGlu3 (Homo sapiens, UniProt Q14832); assay: Selectivity for mGluR2 versus mGluR3; format: biochemical
mGlu7 = mGlu7 (Homo sapiens, UniProt Q14831); assay: Selectivity for mGluR2 versus mGluR7; format: biochemical
mGlu5 = mGlu5 (Homo sapiens, UniProt P41594); assay: Selectivity for mGluR2 versus mGluR5; format: biochemical
mGlu1 = mGlu1 (Homo sapiens, UniProt Q13255); assay: Selectivity for mGluR2 versus mGluR1; format: biochemical
mGlu8 = mGlu8 (Homo sapiens, UniProt O00222); assay: Selectivity for mGluR2 versus mGluR8; format: biochemical
mGlu4 = mGlu4 (Homo sapiens, UniProt Q14833); assay: Selectivity for mGluR2 versus mGluR4; format: biochemical
human mGlu2 receptor = biological target: T1, human mGlu2 receptor (Homo sapiens, UniProt Q14416); assay: [35S]GTPγS binding assay, membranes from CHO cells transfected with the human mGlu2 receptor (NAM activity); format: biochemical
T1 construct: expressed in transfected cells; host or cells: CHO cells
Experimental: The [^35S]GTPγS binding assay is a functional membrane-based assay used to study G-protein coupled receptor (GPCR) function whereby incorporation of a non-hydrolysable form of GTP, [^35S]GTPγS (guanosine 5′-triphosphate, labelled with […] ^35S), is measured. The G-protein a subunit catalyzes the exchange of guanosine 5′-diphosphate (GDP) by guanosine triphosphate (GTP) and on activation of the GPCR by an agonist, [^35S]GTPγS, becomes incorporated and cannot be cleaved to continue the exchange cycle (Harper (1998) Current Protocols in Pharmacology 2.6.1-10, John Wiley & Sons, Inc.). […]
CHO-cells were cultured to pre-confluence and stimulated with 5 mM butyrate for 24 h. […] Protein concentration was determined by the Bradford method (Bio-Rad, USA) with bovine serum albumin as standard.
Measurement of mGluR2 negative allosteric modulatory activity of test compounds was performed as follows. […] Membrane-bound radioactivity was counted in a Topcount.
The concentration-response curves of representative compounds of the present invention were generated using the Lexis software interface (developed at J&J). Data were calculated as % of the control glutamate response, defined as the response that is generated upon addition of an EC80-equivalent concentration of glutamate. […] The concentration producing half-maximal inhibition was calculated as the IC50. […]

Chain of mGlu3 (Q14832 23-879): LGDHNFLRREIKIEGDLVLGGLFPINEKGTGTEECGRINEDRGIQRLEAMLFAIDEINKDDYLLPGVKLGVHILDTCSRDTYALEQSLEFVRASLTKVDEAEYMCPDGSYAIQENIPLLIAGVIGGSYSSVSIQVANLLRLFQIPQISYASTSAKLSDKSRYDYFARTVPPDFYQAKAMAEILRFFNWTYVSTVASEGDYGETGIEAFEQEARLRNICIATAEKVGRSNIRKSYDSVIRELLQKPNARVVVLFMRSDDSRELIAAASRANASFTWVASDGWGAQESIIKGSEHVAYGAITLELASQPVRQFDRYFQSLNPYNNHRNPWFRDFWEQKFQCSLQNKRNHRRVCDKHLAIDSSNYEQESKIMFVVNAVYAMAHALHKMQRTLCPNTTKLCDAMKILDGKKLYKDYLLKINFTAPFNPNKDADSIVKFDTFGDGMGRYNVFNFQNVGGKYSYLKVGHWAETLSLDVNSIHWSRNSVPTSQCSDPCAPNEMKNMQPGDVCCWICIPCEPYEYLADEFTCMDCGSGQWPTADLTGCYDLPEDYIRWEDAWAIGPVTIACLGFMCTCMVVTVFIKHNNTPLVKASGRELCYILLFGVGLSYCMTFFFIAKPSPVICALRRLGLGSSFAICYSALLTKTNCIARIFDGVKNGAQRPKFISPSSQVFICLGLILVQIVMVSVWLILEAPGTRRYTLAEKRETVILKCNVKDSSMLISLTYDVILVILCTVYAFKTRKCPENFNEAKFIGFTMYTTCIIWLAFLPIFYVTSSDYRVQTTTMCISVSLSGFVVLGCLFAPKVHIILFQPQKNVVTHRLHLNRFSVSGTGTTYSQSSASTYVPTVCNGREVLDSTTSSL
Chain of mGlu8 (O00222 34-908): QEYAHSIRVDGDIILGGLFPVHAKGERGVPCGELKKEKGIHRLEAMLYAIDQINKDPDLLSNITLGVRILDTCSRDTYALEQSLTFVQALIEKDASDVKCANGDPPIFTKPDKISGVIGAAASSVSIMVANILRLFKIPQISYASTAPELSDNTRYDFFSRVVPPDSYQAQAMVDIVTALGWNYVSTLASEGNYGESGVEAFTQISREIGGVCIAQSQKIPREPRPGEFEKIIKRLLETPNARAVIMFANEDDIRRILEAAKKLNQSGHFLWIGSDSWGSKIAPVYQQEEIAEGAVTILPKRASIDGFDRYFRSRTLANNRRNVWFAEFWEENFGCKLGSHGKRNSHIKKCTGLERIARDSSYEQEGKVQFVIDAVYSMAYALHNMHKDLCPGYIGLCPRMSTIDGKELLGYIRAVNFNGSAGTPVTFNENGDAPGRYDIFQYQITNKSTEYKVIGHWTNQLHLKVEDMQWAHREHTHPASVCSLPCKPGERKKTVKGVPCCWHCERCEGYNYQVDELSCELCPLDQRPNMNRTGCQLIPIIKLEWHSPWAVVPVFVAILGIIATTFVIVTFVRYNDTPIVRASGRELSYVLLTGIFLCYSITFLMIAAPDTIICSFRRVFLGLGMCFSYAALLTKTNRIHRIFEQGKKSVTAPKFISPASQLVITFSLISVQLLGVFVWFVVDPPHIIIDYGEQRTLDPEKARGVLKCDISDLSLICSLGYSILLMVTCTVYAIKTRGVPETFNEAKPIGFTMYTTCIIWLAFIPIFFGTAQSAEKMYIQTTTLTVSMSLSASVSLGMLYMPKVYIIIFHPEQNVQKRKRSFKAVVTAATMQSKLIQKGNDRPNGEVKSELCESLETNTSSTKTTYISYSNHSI
Chain of mGlu1 (Q13255 19-1194): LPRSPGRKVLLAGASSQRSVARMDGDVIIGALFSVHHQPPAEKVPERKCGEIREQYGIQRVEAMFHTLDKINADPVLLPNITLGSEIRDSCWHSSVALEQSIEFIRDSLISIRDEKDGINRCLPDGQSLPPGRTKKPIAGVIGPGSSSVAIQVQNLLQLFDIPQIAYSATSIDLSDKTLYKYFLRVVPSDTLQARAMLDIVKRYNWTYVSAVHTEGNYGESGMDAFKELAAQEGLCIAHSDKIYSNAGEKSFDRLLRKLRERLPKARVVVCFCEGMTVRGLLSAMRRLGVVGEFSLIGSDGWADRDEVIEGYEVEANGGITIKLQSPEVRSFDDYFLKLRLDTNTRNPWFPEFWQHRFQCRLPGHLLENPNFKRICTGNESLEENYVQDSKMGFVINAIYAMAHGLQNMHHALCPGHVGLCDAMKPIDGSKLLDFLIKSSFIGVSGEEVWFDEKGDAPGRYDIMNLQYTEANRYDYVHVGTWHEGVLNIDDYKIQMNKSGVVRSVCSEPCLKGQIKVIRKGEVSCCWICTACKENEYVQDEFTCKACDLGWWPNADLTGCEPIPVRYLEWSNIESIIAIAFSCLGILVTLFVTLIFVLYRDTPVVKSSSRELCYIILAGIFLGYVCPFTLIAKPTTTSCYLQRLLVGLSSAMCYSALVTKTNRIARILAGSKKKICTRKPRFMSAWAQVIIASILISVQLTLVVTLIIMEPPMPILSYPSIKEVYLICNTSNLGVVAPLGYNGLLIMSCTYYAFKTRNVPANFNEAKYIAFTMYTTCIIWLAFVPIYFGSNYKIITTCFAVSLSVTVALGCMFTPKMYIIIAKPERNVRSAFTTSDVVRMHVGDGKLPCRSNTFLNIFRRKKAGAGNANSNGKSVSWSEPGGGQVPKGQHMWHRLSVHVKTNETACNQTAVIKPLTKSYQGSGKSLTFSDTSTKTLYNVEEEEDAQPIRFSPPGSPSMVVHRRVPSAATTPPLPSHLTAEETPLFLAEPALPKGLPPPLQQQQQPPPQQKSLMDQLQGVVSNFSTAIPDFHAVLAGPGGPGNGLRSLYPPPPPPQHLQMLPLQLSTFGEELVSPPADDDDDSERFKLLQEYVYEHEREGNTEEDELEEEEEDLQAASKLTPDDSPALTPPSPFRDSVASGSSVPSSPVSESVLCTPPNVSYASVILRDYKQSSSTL
T1 sequence (Q14416 19-872): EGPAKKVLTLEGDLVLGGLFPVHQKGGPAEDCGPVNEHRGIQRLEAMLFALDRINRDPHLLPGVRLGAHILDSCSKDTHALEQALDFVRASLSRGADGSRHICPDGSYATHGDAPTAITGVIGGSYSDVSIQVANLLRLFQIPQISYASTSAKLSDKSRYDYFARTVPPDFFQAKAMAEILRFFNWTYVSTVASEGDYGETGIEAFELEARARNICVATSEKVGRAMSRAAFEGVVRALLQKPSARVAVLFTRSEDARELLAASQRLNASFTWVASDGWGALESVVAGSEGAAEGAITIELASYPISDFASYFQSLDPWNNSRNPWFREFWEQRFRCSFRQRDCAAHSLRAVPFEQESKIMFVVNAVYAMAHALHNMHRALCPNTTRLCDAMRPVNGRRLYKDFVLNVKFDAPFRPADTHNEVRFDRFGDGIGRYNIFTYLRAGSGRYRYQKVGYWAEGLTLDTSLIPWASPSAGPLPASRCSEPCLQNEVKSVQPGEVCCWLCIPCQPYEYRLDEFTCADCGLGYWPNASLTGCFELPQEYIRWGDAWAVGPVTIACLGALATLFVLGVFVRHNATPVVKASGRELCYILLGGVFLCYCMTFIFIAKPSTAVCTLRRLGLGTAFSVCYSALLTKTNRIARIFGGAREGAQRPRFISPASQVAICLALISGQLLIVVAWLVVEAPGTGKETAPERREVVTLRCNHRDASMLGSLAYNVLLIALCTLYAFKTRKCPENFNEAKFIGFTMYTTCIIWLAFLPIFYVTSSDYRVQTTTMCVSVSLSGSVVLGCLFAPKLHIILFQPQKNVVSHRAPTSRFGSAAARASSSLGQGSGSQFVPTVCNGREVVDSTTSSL
Chain of mGlu5 (P41594 21-1212): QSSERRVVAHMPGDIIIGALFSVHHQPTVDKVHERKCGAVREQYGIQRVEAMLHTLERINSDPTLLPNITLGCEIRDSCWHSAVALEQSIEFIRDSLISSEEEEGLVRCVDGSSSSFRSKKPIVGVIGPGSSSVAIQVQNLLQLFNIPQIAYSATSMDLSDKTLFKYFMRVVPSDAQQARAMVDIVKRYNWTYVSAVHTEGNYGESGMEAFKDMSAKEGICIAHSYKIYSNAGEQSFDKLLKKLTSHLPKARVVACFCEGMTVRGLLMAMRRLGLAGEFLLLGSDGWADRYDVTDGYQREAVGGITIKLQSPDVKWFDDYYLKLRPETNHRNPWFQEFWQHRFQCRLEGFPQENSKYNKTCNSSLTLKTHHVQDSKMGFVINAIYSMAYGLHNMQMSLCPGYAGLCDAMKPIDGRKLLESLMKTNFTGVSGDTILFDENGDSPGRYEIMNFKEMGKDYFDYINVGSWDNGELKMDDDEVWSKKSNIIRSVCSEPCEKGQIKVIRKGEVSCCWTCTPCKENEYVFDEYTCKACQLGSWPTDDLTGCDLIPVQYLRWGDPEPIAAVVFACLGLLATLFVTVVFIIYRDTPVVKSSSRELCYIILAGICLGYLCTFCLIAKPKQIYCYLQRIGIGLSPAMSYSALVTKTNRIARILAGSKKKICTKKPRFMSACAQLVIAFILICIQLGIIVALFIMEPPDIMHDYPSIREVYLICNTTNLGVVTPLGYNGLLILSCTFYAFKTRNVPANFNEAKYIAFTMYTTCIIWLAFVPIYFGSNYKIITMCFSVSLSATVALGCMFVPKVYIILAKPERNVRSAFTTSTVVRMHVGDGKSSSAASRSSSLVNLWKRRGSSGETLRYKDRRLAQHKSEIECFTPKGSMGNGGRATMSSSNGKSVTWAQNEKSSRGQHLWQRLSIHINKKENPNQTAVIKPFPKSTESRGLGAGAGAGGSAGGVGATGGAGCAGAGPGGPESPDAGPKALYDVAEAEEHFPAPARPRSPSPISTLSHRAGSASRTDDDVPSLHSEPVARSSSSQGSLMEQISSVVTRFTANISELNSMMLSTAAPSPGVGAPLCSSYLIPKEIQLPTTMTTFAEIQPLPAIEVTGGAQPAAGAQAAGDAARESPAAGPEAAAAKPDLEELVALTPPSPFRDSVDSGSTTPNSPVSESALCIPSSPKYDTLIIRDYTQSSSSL

## C[C@H]1CN(c2ccc(Cl)c(Cl)c2)C(=O)c2c(-c3ccnc(F)c3)cnn21 [Co. No. 3, (7S)-5-(3,4-Dichlorophenyl)-3-(2-fluoro-4-pyridyl)-7-methyl-6,7-dihydropyrazolo[1,5-a]pyrazin-4-one]
mGlu3
  Selectivity over mGlu3: 16.2
other
  melting point: 170.3 °C
mGlu7
  Selectivity over mGlu7: 1819.7
mGlu5
  Selectivity over mGlu5: 1819.7
mGlu1
  Selectivity over mGlu1: 1819.7
mGlu8
  Selectivity over mGlu8: 1819.7
mGlu4
  Selectivity over mGlu4: 9120.1

## Cc1cc(-c2cnn3c2C(=O)N(c2ccc(C(F)(F)F)cc2)C[C@@H]3C)ccn1 [Co. No. 1, (7S)-7-Methyl-3-(2-methylpyridin-4-yl)-5-[4-(trifluoromethyl)phenyl]-6,7-dihydropyrazolo[1,5-a]pyrazin-4(5H)-one]
mGlu3
  Selectivity over mGlu3: 25.7
mGlu7
  Selectivity over mGlu7: 1122.0
mGlu5
  Selectivity over mGlu5: 1122.0
mGlu1
  Selectivity over mGlu1: 1122.0
mGlu8
  Selectivity over mGlu8: 1122.0
mGlu4
  Selectivity over mGlu4: 5623.4

## CNc1cc(-c2cnn3c2C(=O)N(c2ccc(S(F)(F)(F)(F)F)cc2)C[C@@H]3C)ccn1 [Co. No. 4, (7S)-7-Methyl-3-[2-(methylamino)-4-pyridyl]-5-[4-(pentafluoro-λ^6-sulfanyl)phenyl]-6,7-dihydropyrazolo[1,5-a]pyrazin-4-one]
mGlu3
  Selectivity over mGlu3: 77.6
Human mGlu2 receptor; glutamate 60 μM (~EC80), read-out: GTPγS - hmGluR2 anGT pIC50 (converted)
  IC50: 3.02 nM
Human mGlu2 receptor; maximal % inhibition relative to the control glutamate response, read-out: GTPγS - hmGluR2 anGT Emax
  Emax: 106%
